Data from US4564619A, “Carbostyril derivative” (Otsuka Pharmaceutical Co., Ltd., priority 1982, dated 1986).

Experiments:
[1] = tested on: collagen-induced aggregation in rabbit platelets; assay: Inhibition of collagen-induced platelet aggregation in rabbit platelet rich plasma; format: cell-based; settings: Oryctolagus cuniculus, read-out: Inhibition rate of collagen-induced aggregation; for inhibition at 100 µM (stock): Concentration of the test compound solution 10^-4 mole; for inhibition at 10 µM (stock): Concentration of the test compound solution 10^-5 mole
Summary of the method: (§1)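 Citrated rabbit PRP adjusted to 600,000 platelets/μl with PPP, preincubated with test compound 1 min at 37° C, then challenged with ADP (solution prepared at 7.5×10^-5 M) or collagen (solution at 200 μg/ml). Aggregation followed by light transmittance; % inhibition relative to control aggregation rate.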

[2] = tested on: coronary artery; assay: Increased amount of the blood flow in coronary artery, intravenous administration, anesthetized dog; format: in vivo
Protocol: The change of blood flow in coronary artery and the change of blood pressure were measured by a method according to Yakura et al., [Japan Journal of Pharmacology, Vol. 57, pages 380-391 (1961)] and according to Taira, et al. [Clin. Exp. Pharmacol. Physiol., Vol. 6, pages 301-316, (1976)].
An adult bastard dog of either sex weighing 8-13 kg was anesthetized with sodium pentobarbital at the rate of 30 mg/kg by intraveneous administration, then the dog was fixed in supination and was theracotomized under a condition of forced breathing. After another intraveneous administration of sodium heparin at the rate of 500 U/kg, 100 U/kg per hour, the dog was subjected to the following experiments.
(2) Intraveneous administration
Morawitz's cannula was cannulated to the coronary sinus venosus through the auricula dextra cordis, and the blood in vein was circulated to the right carotid. The blood flow was measured by an electromagnetic blood flow meter equipped with a blood flow observation probe in the extracorporeal circulation path of the vein. The systolic force was measured by a systolometer (pick-up) placed at the left ventricle of heart, the blood pressure was measured from the femoral artery, and the heart rate was measured from the pulse. A compound to be tested was administered through the cannula being cannulated in femoral vein. The increased amount of the blood flow in coronary artery after the administration of the test compound is shown in Table 4, also the change of blood pressure is shown in Table 5.

[3] = Change of blood pressure, intravenous administration, anesthetized dog; format: in vivo; design: unit not given here; settings: femoral artery
Summary of the method: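 Pentobarbital-anesthetized (30 mg/kg i.v.), heparinized, thoracotomized dogs of either sex, 8-13 kg, under forced breathing; compound given via femoral vein. Coronary sinus outflow measured by electromagnetic flowmeter in an extracorporeal venous circuit to the carotid; blood pressure recorded from femoral artery.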

[4] = tested on: ADP-induced aggregation in rabbit platelets; assay: Inhibition of ADP-induced platelet aggregation in rabbit platelet rich plasma; format: cell-based; settings: Oryctolagus cuniculus, read-out: Inhibition rate of ADP-induced aggregation; for inhibition at 100 µM (stock): Concentration of the test compound solution 10^-4 mole; for inhibition at 10 µM (stock): Concentration of the test compound solution 10^-5 mole
Summary of the method: as §1

SMILES | inhibition at 100 µM (stock) [1] [%] | inhibition at 10 µM (stock) [1] [%] | Increased amount of the blood flow in coronary artery ([2]; 10 micrograms/kg) [mL/min] | Increased amount of the blood flow in coronary artery ([2]; 30 micrograms/kg) [mL/min] | Increased amount of the blood flow in coronary artery ([2]; 100 micrograms/kg) [mL/min] | Increased amount of the blood flow in coronary artery ([2]; 300 micrograms/kg) [mL/min] | Change of blood pressure ([3]; 10 micrograms/kg) | Change of blood pressure ([3]; 30 micrograms/kg) | Change of blood pressure ([3]; 100 micrograms/kg) | Change of blood pressure ([3]; 300 micrograms/kg) | inhibition at 100 µM (stock) [4] [%] | inhibition at 10 µM (stock) [4] [%] | Increased amount of the blood flow in coronary artery ([2]; 1000 micrograms/kg) [mL/min] | Increased amount of the blood flow in coronary artery ([2]; 3 micrograms/kg) [mL/min] | Change of blood pressure ([3]; 3 micrograms/kg)
COC(=O)C1=C(C)NC(C)=C(C(=O)OCCOc2ccc3[nH]c(=O)ccc3c2)C1c1cccc([N+](=O)[O-])c1 (centres unmarked) [Compound 10, 6-{2-[2,6-Dimethyl-5-methoxycarbonyl-4-(3-nitrophenyl)-1,4-dihydropyridin-3-carboxy]-ethoxy}carbostyril] | 100 | 50 | 2 | 5 | 23 | 43 | -5 | -9 | -13 | -34 | 100 | 27 | – | – | –
COC(=O)C1=C(C)NC(C)=C(C(=O)OCCN(C(=O)CCCOc2ccc3[nH]c(=O)ccc3c2)C2CCCCC2)C1c1cccc([N+](=O)[O-])c1 (centres unmarked) [Compound 31, N--{2-[1,4-Dihydro-2,6-dimethyl-5-methoxycarbonyl-4-(3-nitrophenyl)pyridin-3-carboxy]ethyl}-N--cyclohexyl-4-(6-carbostyriloxy)butyramide] | 100 | 100 | – | – | 6 | 32 | -1 | -4 | -8 | -23 | 100 | 84 | 61 | – | –
C=CCOc1ccc(OCCCOC(=O)C2=C(C)NC(C)=C(C(=O)OC)C2c2cccc([N+](=O)[O-])c2)c2c1NC(=O)CC2 (centres unmarked) [Compound 1, 5-{3-[2,6-Dimethyl-5-methoxycarbonyl-4-(3-nitrophenyl)-1,4-dihydropyridin-3-carboxy]-propoxy}-8-propenyloxy-3,4-dihydrocarbostyril] | 51 | 15 | 34 | 63 | 62 | 42 | -17 | -36 | -42 | -46 | 19 | 1 | – | 4 | -6
COC(=O)C1=C(C)NC(C)=C(C(=O)OCCN(C(=O)CCCOc2ccc3[nH]c(=O)ccc3c2)C2CCCCC2)C1c1ccccc1 (centres unmarked) [Compound 35, N--[2-(1,4-Dihydro-2,6-dimethyl-5-methoxycarbonyl-4-phenylpyridin-3-carboxy)ethyl]-N--cyclohexyl-4-(6-carbostyriloxy)butyramide] | 100 | 100 | – | – | 5 | 17 | -4 | -6 | -9 | -26 | 100 | 89 | 47 | – | –
COC(=O)C1=C(C)NC(C)=C(C(=O)OCCCOc2ccc(O)c3c2CCC(=O)N3)C1c1cccc([N+](=O)[O-])c1 (centres unmarked) [Compound 7, 5-{3-[2,6-Dimethyl-5-methoxycarbonyl-4-(3-nitrophenyl)-1,4-dihydropyridin-3-carboxy]-propoxy}-8-hydroxy-3,4-dihydrocarbostyril] | 15 | 3 | – | 1 | 15 | 47 | -2 | -4 | -9 | -14 | 14 | 3 | – | – | –
COC(=O)C1=C(C)NC(C)=C(C(=O)OCCCOc2cccc3c2CCC(=O)N3)C1c1cccc([N+](=O)[O-])c1 (centres unmarked) [Compound 4, 5-{3-[2,6-Dimethyl-5-methoxycarbonyl-4-(3-nitrophenyl)-1,4-dihydropyridin-3-carboxy]-propoxy}-3,4-dihydrocarbostyril] | 23 | 11 | 8 | 22 | 62 | 90 | -15 | -25 | -34 | -51 | 16 | 4 | – | 3 | -5
COC(=O)C1=C(C)NC(C)=C(C(=O)OCCOc2cccc3c2CCC(=O)N3)C1c1cccc([N+](=O)[O-])c1 (centres unmarked) [Compound 2, 5-{2-[2,6-Dimethyl-5-methoxycarbonyl-4-(3-nitrophenyl)-1,4-dihydropyridin-3-carboxy]-ethoxy}-3,4-dihydrocarbostyril] | 79 | 17 | 3 | 13 | 38 | 52 | -2 | -6 | -21 | -34 | 28 | 1 | – | – | –
COC(=O)C1=C(C)NC(C)=C(C(=O)OCCOc2ccc3c(c2)CCC(=O)N3)C1c1cccc([N+](=O)[O-])c1 (centres unmarked) [Compound 3, 6-{2-[2,6-Dimethyl-5-methoxycarbonyl-4-(3-nitrophenyl)-1,4-dihydropyridin-3-carboxy]-ethoxy}-3,4-dihydrocarbostyril] | 100 | 97 | 1 | 3 | 14 | 38 | -1 | -4 | -18 | -34 | 100 | 27 | – | 2 | –
